Read-outs that look alike come from different tables or passages of the source. Where a SMILES comes first, the peptide text is derived from it.
What was measured:
[1] = target: T1, N-terminal site of human angiotensin-converting enzyme (Active N-terminal ACE) (Homo sapiens, UniProt P12821, H988K/H992K); experiment: ACE inhibition, quenched fluorescence substrate, N-terminal mutant (C-terminal site inactive); type: biochemical; details: for degree of selectivity in favour of the N-terminal site (FIG. 3): N-terminal site at 100 nM, C-terminal site at 5 μM
T1 construct: made in house; host or cells: CHO cells
Description: (§1) Said mixtures were evaluated at final peptide concentrations of 200 nM in order to determine their ACE inhibitory capacity. To assay ACE, a new quenched fluorescence ACE substrate (Mca-Ala-Ser-Asp-Lys-Dpa) was developed, where Mca represents methoxy coumarine and Dpa 2-(N-dinitrophenyl)aminopropionic acid. Said substrate, which is […], emits an intense fluorescent signal after splitting, between the Asp and Lys residues, by ACE. Using this type of substrate, it is possible to test the inhibitory power of a very large number of compounds in Elisa plates.
(§2) The inhibitory power of the compounds is determined in a conventional competition test based on the breakdown of the quenched fluorescence substrate […]. The breakdown of said substrate by ACE results in the observation of a fluorescent signal at 400 nm, when the sample is excited at 328 nm. The inhibition experiments are conducted in Elisa plate wells, in volumes of 200 μl of buffer: pH 6.8, 50 mM Hepes, 200 mM NaCl, 1 mM ZnCl2, at 25° C., in a Dynatech Fluorolite 1000 type unit. The concentration of the substrate in a typical experiment is 20 μM. For the inhibition experiments, the inhibitor is placed in the presence of the enzyme for 45 min, and the reaction is then initiated by simply adding a very small volume of substrate. The inhibition percentages are calculated from the initial rate variations in the presence of inhibitor. The breakdown kinetics were determined from the record of the fluorescence variations over a 40 min time interval.
(§3) Said mutants were produced from CHO cells.

[2] = target: T2, C-terminal site of human angiotensin-converting enzyme (Active C-terminal ACE) (Homo sapiens, UniProt P12821, H390K/H394K); experiment: ACE inhibition, quenched fluorescence substrate, C-terminal mutant (N-terminal site inactive); type: biochemical; details: C-terminal mutant of ACE from CHO cells
T2 construct: made in house; host or cells: CHO cells
Description: as §1, §2, §3

[3] = tested on: ACE N-terminal domain versus C-terminal domain; details: in vitro; cited from earlier work
[4] = tested on: plasma renin; experiment: Plasma renin level (angiotensin I formed) after infusion; type: in vivo; details: mice; RXP 407 0.1, 1, 10 mg/kg; Lisinopril 10 mg/kg
Description: In this example, the effect of RXP 407 on the levels of renin, another enzyme involved in arterial pressure regulation, is determined. Inhibition of ACE with a conventional inhibitor of said enzyme stops the hydrolysis of angiotensin I into angiotensin II. Angiotensin is indeed one of the physiological substrates of ACE. The decrease in the angiotensin II level in plasma by a retrocontrol mechanism, increases the plasma level of renin, an enzyme directly involved in the production of angiotensin I, from angiotensinogen.
In this way, the inhibition of ACE may be monitored indirectly by the plasma renin level.
This level may be evaluated by the capacity of renin in plasma samples to hydrolyse excess angiotensinogen present in mouse plasma. The formation of angiotensin I is then measured by a radioimmunological assay and the renin level is expressed in ng of angiotensin I formed per ml of plasma and per hour of incubation.

[5] = Elimination and metabolism of tritiated RXP 407 in vivo; set-up: species or system rats; details: rat
Description: (§4) For this purpose, an RXP 407 comprising three tritium atoms on the N-acetyl group is synthesised to be able to conduct a study on the pharmacokinetics and metabolism of said molecule in rats, by injecting said product at doses of 0.1, 1 and 5 mg/kg by intravenous bolus.

[6] = Plasma concentration of tritiated RXP 407 after intravenous bolus; set-up: species or system rats; details: rat, in vivo, 5 mg/kg
Description: as §4
The plasma concentration of RXP 407 as a function of time is then determined.
The results obtained are represented in FIG. 7. Curve 1 corresponds to 0.1 mg/kg, curve 2 to 1 mg/kg and curve 3 to 5 mg/kg. The dotted curve illustrates the Ki of RXP 407 (20 nM).

[7] = tested on: plasma Ac-Ser-Asp-Lys-Pro (Ac-SDKP); experiment: Plasma Ac-SDKP concentration after 30 minute infusion; type: in vivo; details: mice, infusion for 30 minutes; RXP 407 0.1, 1, 10 mg/kg; Lisinopril 10 mg/kg
Description: For this purpose, the mice undergo an infusion of RXP 407 for 30 minutes, at doses of 0.1, 1 and 10 mg/kg and the Ac-Ser-Asp-Lys-Pro-(Ac-SDKP) peptide concentration of the mouse plasma is determined.
The Ac-Ser-Asp-Lys-Pro is determined by a competition immunoenzyme assay using polyclonal antibodies and Ac-SDKP linked to Electrophorus Electricus acetyicholinesterase.
The same plasma Ac-SDKP measurements are made on mice infused with Lisinopril of a 10 mg/kg dose and on non-infused control mice. Lisinopril is an inhibitor used in clinical practice which inhibits both active sites of ACE non-selectively.

[8] = target: T3, wild human ACE (Homo sapiens, UniProt P12821); experiment: Inhibition of natural ACE as a function of RXP 407 concentration; type: biochemical; details: wild human ACE from CHO cells
T3 construct: made in house; host or cells: CHO cells
Description: as §2
In this example, the RXP 407 peptide is used as a natural ACE inhibitor, and the effect of the RXP 407 concentration (in nM) on the ACE inhibition percentage is studied.
The inhibitory power of the compound is determined as in example 1 using wild human ACE produced by CHO cells according to the protocol described in the reference Wei et al, J. Biol. Chem. (1992) 267, 13398-13405 [14].

[9] = tested on: plasma AcSDKP; details: single dose, healthy volunteer subjects; cited from earlier work
[10] = N-terminal mutant of ACE from CHO cells, read-out: Ki Active N-terminal ACE

T2 sequence (P12821 30-1306 H390K/H394K): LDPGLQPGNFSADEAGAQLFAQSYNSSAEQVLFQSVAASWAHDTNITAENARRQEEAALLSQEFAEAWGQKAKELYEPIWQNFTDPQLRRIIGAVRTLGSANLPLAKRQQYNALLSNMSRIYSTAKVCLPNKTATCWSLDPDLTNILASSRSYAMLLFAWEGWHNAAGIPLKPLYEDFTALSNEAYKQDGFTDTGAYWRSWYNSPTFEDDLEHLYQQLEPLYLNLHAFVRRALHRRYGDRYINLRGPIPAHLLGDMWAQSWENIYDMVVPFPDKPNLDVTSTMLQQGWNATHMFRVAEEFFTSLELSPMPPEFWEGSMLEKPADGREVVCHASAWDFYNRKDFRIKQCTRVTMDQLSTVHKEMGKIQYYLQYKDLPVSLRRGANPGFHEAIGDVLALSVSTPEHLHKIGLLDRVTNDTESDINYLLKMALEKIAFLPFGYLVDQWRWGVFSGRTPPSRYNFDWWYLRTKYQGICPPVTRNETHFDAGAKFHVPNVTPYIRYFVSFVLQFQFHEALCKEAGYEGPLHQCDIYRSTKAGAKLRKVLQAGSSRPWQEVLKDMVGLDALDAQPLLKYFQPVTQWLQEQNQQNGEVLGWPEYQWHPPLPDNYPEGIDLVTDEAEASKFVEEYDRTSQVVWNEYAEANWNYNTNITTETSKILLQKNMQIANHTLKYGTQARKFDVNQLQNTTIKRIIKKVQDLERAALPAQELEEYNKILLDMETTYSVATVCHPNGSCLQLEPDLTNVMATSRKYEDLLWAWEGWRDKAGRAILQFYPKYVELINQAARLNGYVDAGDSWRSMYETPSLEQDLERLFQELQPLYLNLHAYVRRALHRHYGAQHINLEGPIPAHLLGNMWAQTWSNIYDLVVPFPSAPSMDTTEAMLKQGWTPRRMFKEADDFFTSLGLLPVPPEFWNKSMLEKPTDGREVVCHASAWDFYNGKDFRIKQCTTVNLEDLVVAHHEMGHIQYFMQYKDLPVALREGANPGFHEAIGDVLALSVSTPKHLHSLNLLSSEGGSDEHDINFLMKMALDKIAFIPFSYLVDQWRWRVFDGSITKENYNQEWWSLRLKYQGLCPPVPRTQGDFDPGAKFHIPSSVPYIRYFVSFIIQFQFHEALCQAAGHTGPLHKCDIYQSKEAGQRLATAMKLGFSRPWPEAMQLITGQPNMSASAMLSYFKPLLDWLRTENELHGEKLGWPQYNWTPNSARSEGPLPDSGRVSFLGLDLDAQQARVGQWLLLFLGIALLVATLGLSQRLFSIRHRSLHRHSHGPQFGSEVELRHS
T1 sequence (P12821 30-1306 H988K/H992K): as the sequence (P12821 30-1306 H390K/H394K) above, with K361H, K365H, H959K, H963K counted along it
T3 sequence (P12821 30-1306): as the sequence (P12821 30-1306 H390K/H394K) above, with K361H, K365H counted along it

CC(=O)N[C@@H](C)C(=O)NC(Cc1ccccc1)P(=O)(O)CC(C)C(=O)N[C@@H](C)C(N)=O (stereo partly shown) [Ac-Ala-Pheψ (PO2CH2) Ala-AlaNH2]
Ki [1, 10]: 15 nM | Ki [2]: 200 nM

CC(=O)N[C@@H](CC(=O)O)C(=O)NC(Cc1ccccc1)P(=O)(O)CC(C)C(=O)N[C@@H](C)C(N)=O (stereo partly drawn) [Ac-Asp-Pheψ (PO2CH2) Ala-AlaNH2, Ac-Asp-PheΨ(PO2CH2)Ala-Ala-NH2]
Ki [1, 10]: 25 nM | degree of selectivity in favour of the N-terminal site (FIG. 3) [1]: improve the degree of selectivity in favour of the N-terminal site

CC(=O)N[C@@H](CC(=O)O)C(=O)NC(Cc1ccccc1)P(=O)(O)CC(C)C(=O)N[C@@H](C)C(=O)O (stereo partly shown) [Ac-Asp-Pheψ (PO2CH2) Ala-AlaOH]
Ki [1, 10]: 2 nM | Ki [2]: 7 nM

CC(=O)N[C@@H](CO)C(=O)N[C@@H](CC(=O)O)C(=O)N[C@@H](CCCCN)C(=O)N1CCC[C@H]1C(=O)O [AcSDKP, N-Acetyl-Seryl-Aspartyl-Lysyl-Proline] (Ac-SDKP-OH)
hydrolysed more quickly by the N-terminal domain than by the C-terminal domain [3]: 50 times

CC(CP(=O)(O)C(Cc1ccccc1)NC(=O)[C@@H](N)CC(=O)O)C(=O)N[C@@H](C)C(N)=O (stereo partly shown) [H2N-Asp-Pheψ (PO2CH2) Ala-AlaNH2]
Ki [1, 10]: 5 nM | Ki [2]: 800 nM

CC(CP(=O)(O)C(Cc1ccccc1)NC(=O)[C@@H](N)CC(=O)O)C(=O)N[C@@H](C)C(=O)O (stereo partly shown) [H2N-Asp-Pheψ (PO2CH2) Ala-AlaOH]
Ki [1, 10]: 2 nM | Ki [2]: 60 nM

NCCCC[C@H](N[C@@H](CCc1ccccc1)C(=O)O)C(=O)N1CCC[C@H]1C(=O)O [Lisinopril, reference compound]
plasma renin level (FIG. 9) [4]: induces an increase in the plasma renin level

CC(=O)N[C@@H](CC(=O)O)C(=O)N[C@@H](Cc1ccccc1)P(=O)(O)C[C@@H](C)C(=O)N[C@@H](C)C(N)=O [RXP 407, Ac-Asp-(R)Phe(PO2CH2)-(S)Ala-Ala-NH2]
plasma renin level (FIG. 9) [4]: does not induce an increase in renin | Ki [1, 10]: 12 nM | Ki ([1]; value drawn in plasma concentration figure, read-out: Ki of RXP 407 (dotted curve of FIG. 7)): 20 nM | Total [5]: 100.09±7 % of injected radioactivity | eliminated in urine [5]: 87% | metabolism (structure of the product in urine and faeces) [5]: does not undergo any metabolism | product detected in the airways [5]: No trace of this product is detected | dose excreted ([5]; iv, total radioactivity): 13% | plasma RXP 407 concentration [6]: 100 ng/mL | plasma level of Ac-SDKP peptide (FIG. 8) [7]: very significant increase | IC50 values with respect to the N and C-terminal sites of natural ACE (inflection points, FIG. 6) [8]: compatible with the Ki values measured using the ACE mutants

C[C@H](CS)C(=O)N1CCC[C@H]1C(=O)O [captopril]
increase of the plasma level of AcSDKP [9]: 6 to 7 fold

proline
degree of selectivity in favour of the N-terminal site (FIG. 3) [1]: improve the degree of selectivity in favour of the N-terminal site
